We go through twelve compounds from patent US8637498B2, “Oxopiperazine-azetidine amides and oxodiazepine-azetidine amides as monoacylglycerol lipase inhibitors” (Janssen Pharmaceutica, NV, priority 2010, dated 2014).

Changes are numbered by the printed parent chain. Like-named read-outs stand apart in the source and are kept apart here. Where only a bound is given, the exact number is not on record here.

Assay [1] addresses T1, purified wild type MGL (wt-MGLL 6H-11-313) (Homo sapiens, UniProt Q99685).
T1 construct: wt-MGLL 6H-11-313; 6H (hexahistidine) (N)
T1 sequence (Q99685 1-303): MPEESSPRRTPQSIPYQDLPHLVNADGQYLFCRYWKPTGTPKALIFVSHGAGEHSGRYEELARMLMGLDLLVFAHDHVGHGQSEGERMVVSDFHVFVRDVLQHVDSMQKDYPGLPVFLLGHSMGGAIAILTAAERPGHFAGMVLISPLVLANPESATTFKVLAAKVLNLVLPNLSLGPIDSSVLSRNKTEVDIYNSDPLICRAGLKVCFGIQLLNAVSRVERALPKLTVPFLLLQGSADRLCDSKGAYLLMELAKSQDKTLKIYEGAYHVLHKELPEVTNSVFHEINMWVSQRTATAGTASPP
In words: MGL Enzyme Activity Assay (wild type MGL, 4MU-B substrate). In kind it is biochemical. As to conditions: wild type MGL 5 nM, 4MU-B 10 μM, 37° C.; read-out: MGL wild type inh IC50. How it is done:
All rate-based assays were performed in black 384-well polypropylene PCR microplates (Abgene) in a total volume of 30 μL. Substrate 4-methylumbelliferyl butyrate (4MU-B; Sigma) and either purified mutant MGL (mut-MGLL 11-313 L179S L186S) or purified wild type MGL (wt-MGLL 6H-11-313) were diluted separately into 20 mM PIPES buffer (pH=7.0), containing 150 mM NaCl and 0.001% Tween 20. Compounds of Formula (Ia) and (Ib) were pre-dispensed (50 nL) into the assay plate using a Cartesian Hummingbird prior to adding 4MU-B (25 μL of 1.2× solution to a final concentration of 10 μM) followed by enzyme (5 μL of a 6× solution to a final concentration of 5 nM) to initiate the reaction. Final compound concentrations ranged from 17 to 0.0003 μM. The fluorescence change due to 4MU-B cleavage was monitored with excitation and emission wavelengths of 335 and 440 nm, respectively, and a bandwidth of 10 nm (Safire^2, Tecan) at 37° C. for 5 min.
The IC50 values for compounds of Formula (Ia) or (Ib) were determined using Excel from a fit of the equation to the concentration-response plot of the fractional activity as a function of inhibitor concentration.

The next assay deals with T2, mutant MGL (Homo sapiens, UniProt Q99685, L169S/L176S).
T2 construct: mut-MGLL 11-313 L179S L186S
T2 sequence (Q99685 1-303 L169S/L176S): T1 sequence (Q99685 1-303) with L169S, L176S
In words: MGL ThermoFluor Assay - Mutant. In kind it is binding. The method, then: The ThermoFluor (TF) assay is a 384-well plate-based binding assay that measures thermal stability of proteins^1,2. The experiments were carried out using instruments available from Johnson & Johnson Pharmaceutical Research & Development, LLC. TF dye used in all experiments was 1,8-ANS (Invitrogen: A-47). Final TF assay conditions used for MGL studies were 0.07 mg/ml of mutant MGL, 100 μM ANS, 200 mM NaCl, 0.001% Tween-20 in 50 mM PIPES (pH=7.0).
Screening compound plates contained 100% DMSO compound solutions at a single concentration. For follow-up concentration-response studies, compounds were arranged in a pre-dispensed plate (Greiner Bio-one: 781280), wherein compounds were serially diluted in 100% DMSO across 11 columns within a series. Columns 12 and 24 were used as DMSO reference and contained no compound. For both single and multiple compound concentration-repsonse experiments, the compound aliquots (46 nL) were robotically predispensed directly into 384-well black assay plates (Abgene: TF-0384/k) using the Hummingbird liquid handler. Following compound dispension, protein and dye solutions were added to achieve the final assay volume of 3 μL. The assay solutions were overlayed with 1 μL of silicone oil (Fluka, type DC 200: 85411) to prevent evaporation.
Bar-coded assay plates were robotically loaded onto a thermostatically controlled PCR-type thermal block and then heated from 40 to 90° C. degrees at a ramp-rate of 1° C./min for all experiments. Fluorescence was measured by continuous illumination with UV light (Hamamatsu LC6), supplied via fiber optics and filtered through a band-pass filter (380-400 nm; >6 OD cutoff). Fluorescence emission of the entire 384-well plate was detected by measuring light intensity using a CCD camera (Sensys, Roper Scientific) filtered to detect 500±25 nm, resulting in simultaneous and independent readings of all 384 wells. A single image with 20-sec exposure time was collected at each temperature, and the sum of the pixel intensity in a given area of the assay plate was recorded vs temperature and fit to standard equations to yield the Tm^1. • 1. Pantoliano, M. W., Petrella, E. C., Kwasnoski, J. D., Lobanov, V. S., Myslik, J., Graf, E., Carver, T., Asel, E., Springer, B. A., Lane, P., and Salemme, F. R. (2001) J Biomol Screen 6, 429-40. • 2. Matulis, D., Kranz, J. K., Salemme, F. R., and Todd, M. J. (2005) Biochemistry 44, 5258-66.
The Kd values for compounds of Formula (Ia) and (Ib) were determined from a fit of the equation to the concentration-response plot of the fractional activity as a function of Tm. For some experiments, quantitative NMR spectroscopy (qNMR) was used to measure concentration of the initial 100% DMSO compound solutions and, using the same fitting method, qKd values were determined.

The mark [2] stands for this setting: mutant MGL, compound concentration measured by qNMR, read-out: MGL mutant ThermoFluor qKd (using qNMR conc.).
Setting [3] is: mutant MGL 0.07 mg/ml, 1,8-ANS dye, read-out: MGL mutant ThermoFluor Kd.

On to `O=C(c1ccc2c(ccn2-c2ccc(F)cc2)c1)N1CC(N2CCN(c3ncccn3)C(=O)C2)C1` [Cpd 4, 4-(1-{[1-(4-Fluorophenyl)-1H-indol-5-yl]carbonyl}azetidin-3-yl)-1-pyrimidin-2-ylpiperazin-2-one], for which the IC50 in assay [1] was found to be 134 nM. For the same compound, the Kd on mutant MGL (setting [2]) came to 943 nM.

Regarding `O=C(c1sc2cc(C(F)(F)F)ccc2c1Cl)N1CC(N2CCN(c3ncccn3)C(=O)C2)C1` [Cpd 8, 4-(1-{[3-Chloro-6-(trifluoromethyl)-1-benzothiophen-2-yl]carbonyl}azetidin-3-yl)-1-pyrimidin-2-ylpiperazin-2-one], the IC50 in assay [1] came out at 124 nM. Besides, the Kd at mutant MGL (setting [2]) is 165 nM.

For the compound `O=C(c1ccc(-c2ccccc2)cc1)N1CC(N2CCN(c3ncccn3)C(=O)C2)C1` [Cpd 9, 4-[1-(Biphenyl-4-ylcarbonyl)azetidin-3-yl]-1-pyrimidin-2-ylpiperazin-2-one], in assay [1], the half-maximal inhibitory concentration (IC50) stood at 7850 nM. Further, the Kd on mutant MGL (setting [2]) is 5660 nM.

Take `O=C(c1ccc2nc(-c3ccccc3)sc2c1)N1CC(N2CCN(c3ncccn3)C(=O)C2)C1` [Cpd 10, 4-{1-[(2-Phenyl-1,3-benzothiazol-6-yl)carbonyl]azetidin-3-yl}-1-pyrimidin-2-ylpiperazin-2-one]: the IC50 in assay [1] amounted to 3640 nM. Besides, the Kd at mutant MGL (setting [2]) was 10600 nM.

For the compound `O=C(c1sc2cc(C(F)(F)F)ccc2c1Cl)N1CC(N2CCN(c3nccs3)C(=O)C2)C1` [Cpd 11, 4-(1-{[3-Chloro-6-(trifluoromethyl)-1-benzothiophen-2-yl]carbonyl}azetidin-3-yl)-1-(1,3-thiazol-2-yl)piperazin-2-one], the IC50 in assay [1] was less than 5 nM. Further, on mutant MGL (setting [3]), the Kd worked out at 64.3 nM.

Regarding `O=C(c1ccc2nc(-c3ccccc3)sc2c1)N1CC(N2CCN(c3nccs3)C(=O)C2)C1` [Cpd 12, 4-{1-[(2-Phenyl-1,3-benzothiazol-6-yl)carbonyl]azetidin-3-yl}-1-(1,3-thiazol-2-yl)piperazin-2-one], the IC50 in assay [1] is 98.6 nM. Moreover, the Kd on mutant MGL (setting [3]) came out at 994 nM.

Turning to `O=C(c1ccc2c(ccn2-c2ccc(C(F)(F)F)cc2)c1)N1CC(N2CCN(c3ccccc3)C(=O)C2)C1` [Cpd 13, 1-Phenyl-4-[1-({1-[4-(trifluoromethyl)phenyl]-1H-indol-5-yl}carbonyl)azetidin-3-yl]piperazin-2-one], the half-inhibitory concentration (IC50) in assay [1] came to 908 nM. Further, on mutant MGL (setting [3]), the Kd is 1350 nM.

As for `O=C(c1sc2cc(C(F)(F)F)ccc2c1Cl)N1CC(N2CCN(c3ccccc3)C(=O)C2)C1` [Cpd 14, 4-(1-{[3-Chloro-6-(trifluoromethyl)-1-benzothiophen-2-yl]carbonyl}azetidin-3-yl)-1-phenylpiperazin-2-one], the IC50 in assay [1] was determined as 225 nM. In addition, the Kd at mutant MGL (setting [3]) came to 495 nM.

As to `O=C(c1ccc2c(ccn2-c2ccc(F)c(F)c2)c1)N1CC(N2CCN(c3ccccc3)C(=O)C2)C1` [Cpd 15, 4-(1-{[1-(3,4-Difluorophenyl)-1H-indol-5-yl]carbonyl}azetidin-3-yl)-1-phenylpiperazin-2-one], the IC50 in assay [1] stood at 304 nM. Moreover, the Kd at mutant MGL (setting [3]) worked out at 1970 nM.

`O=C(c1ccc2nc(-c3ccccc3)oc2c1)N1CC(N2CCN(c3nccs3)C(=O)C2)C1` [Cpd 16, 4-{1-[(2-Phenyl-1,3-benzoxazol-6-yl)carbonyl]azetidin-3-yl}-1-(1,3-thiazol-2-yl)piperazin-2-one]: in assay [1], the IC50 came to 67.7 nM. In addition, the Kd on mutant MGL (setting [2]) stood at 1380 nM.

Regarding `O=C(c1sc2cc(C(F)(F)F)ccc2c1Cl)N1CC(N2CCC(=O)N(c3ncccn3)CC2)C1` [Cpd 17, 1-(1-{[3-Chloro-6-(trifluoromethyl)-1-benzothiophen-2-yl]carbonyl}azetidin-3-yl)-4-pyrimidin-2-yl-1,4-diazepan-5-one], in assay [1], the IC50 came to 55.4 nM. On mutant MGL (setting [2]), the Kd amounted to 52.5 nM.

As to `O=C(c1ccc(-c2ccccc2)cc1)N1CC(N2CCN(c3nccs3)C(=O)C2)C1` [Cpd 18, 4-[1-(Biphenyl-4-ylcarbonyl)azetidin-3-yl]-1-(1,3-thiazol-2-yl)piperazin-2-one], the IC50 in assay [1] amounted to 1660 nM. The Kd on mutant MGL (setting [2]) came out at 1370 nM.

As a reminder, the IC50 is the midpoint of a concentration-inhibition curve.
